Data on 1 molecule can be found in patent US7790364B2, “Compositions and methods for high throughput screening of pharmacological chaperones” (The Board of Trustees of the Leland Stanford Junior …, priority 2006, dated 2010).

SMILES strings stand for the structures.

Holding throughout (format): cell-based
Assay [1] addresses T1, 4S-ΔF508 CFTR (Homo sapiens, UniProt P13569, DEL508-508/INS895[…]).
T1 construct: antibodies against the CFTR C-terminus to test for complete open reading frame; 4 x S-tag (KETAAAKFERQHMDS) with GGGG spacers, in the 4th extracellular loop; expressed in transfected cells
Kind of assay: FACS assay measuring S-tag epitopes at the cell surface with a polyclonal antibody. To be noted: for surface expression of CFTR (FACS): different concentrations, 1 or 2 days, with or without induction of 4S tag delta F508 expression, compared with 28° C. positive control. An excerpt:
The library was screened against 4S-ΔF508 CFTR expressing CHO cells using the assay described in Example 2 above. Each of these compounds was retested using an FACS assay to measure S-tag epitopes at the cell surface with a polyclonal antibody, as shown in FIG. 8.

Assay [2] concerns the target T1, 4S-ΔF508 CFTR. Kind of assay: Western blotting of CFTR expression in cells exposed to compound. The note with it: FIG. 10. (In western blotting, separated proteins are transferred to a membrane and probed.)
In assay [3] the target is T1, 4S-ΔF508 CFTR. Kind of assay: RNAase S complementation screening assay on 4S-ΔF508 CFTR expressing CHO cells. To be noted: LOPAC1280 library screen. The procedure: Optimize conditions for homogeneous cell-based assay for ΔF508-CFTR rescue. Surface detection of S-protein tagged CFTR used reconstitution of RNAase S activity and detection with the fluorogenic probe 6-F-dArUdAdA-6-TMR.
Screening was carried out on a customized apparatus (SAGIAN, Beckman) containing a 3-m rail Optimized Robot for Chemical Analysis that integrates the following robot-accessible instruments on a 4×2-m optical table: (a) SAGIAN 180 CO2 incubator, which holds 180 standard microplates in a storage carousel; (b) Elx405-Select plate washer with valve option and vacuum-sensing/waste alert for complex automated wash cycles; (c) SAGIAN MPS-8 CS incubator (holds eight standard microplates at 4-37±1° C.); […] SAGIAN shaker (six plate positions, frequency range 40-1100 rpm with variable amplitude); (e) Biomek 2000 liquid handling work station (installed with four positions to hold tip boxes with automatic air locks and six positions for microplates and liquid reservoirs, and MP 20 and MP 200 8-channel tip tools for liquid transfer); (f) SAGIAN carousel (holding 40 pipette tip boxes and 90 microplates); (g) SAGIAN bar code reader; (h) SAGIAN microplate lidding station with automatic vacuum control of six suction cups; (i) two FluoStar fluorescence plate readers (BMG Lab Technologies), each equipped with two-syringe pumps.
Data collection and analysis. […]

Assay [4] deals with T1, 4S-ΔF508 CFTR. Kind of assay: Immunofluorescence labeling using polyclonal S-tag antibody. The note with it: varying doses, FIG. 11.

T1 sequence (P13569 with tags, fused parts or gaps DEL508-508/INS895[withheld]): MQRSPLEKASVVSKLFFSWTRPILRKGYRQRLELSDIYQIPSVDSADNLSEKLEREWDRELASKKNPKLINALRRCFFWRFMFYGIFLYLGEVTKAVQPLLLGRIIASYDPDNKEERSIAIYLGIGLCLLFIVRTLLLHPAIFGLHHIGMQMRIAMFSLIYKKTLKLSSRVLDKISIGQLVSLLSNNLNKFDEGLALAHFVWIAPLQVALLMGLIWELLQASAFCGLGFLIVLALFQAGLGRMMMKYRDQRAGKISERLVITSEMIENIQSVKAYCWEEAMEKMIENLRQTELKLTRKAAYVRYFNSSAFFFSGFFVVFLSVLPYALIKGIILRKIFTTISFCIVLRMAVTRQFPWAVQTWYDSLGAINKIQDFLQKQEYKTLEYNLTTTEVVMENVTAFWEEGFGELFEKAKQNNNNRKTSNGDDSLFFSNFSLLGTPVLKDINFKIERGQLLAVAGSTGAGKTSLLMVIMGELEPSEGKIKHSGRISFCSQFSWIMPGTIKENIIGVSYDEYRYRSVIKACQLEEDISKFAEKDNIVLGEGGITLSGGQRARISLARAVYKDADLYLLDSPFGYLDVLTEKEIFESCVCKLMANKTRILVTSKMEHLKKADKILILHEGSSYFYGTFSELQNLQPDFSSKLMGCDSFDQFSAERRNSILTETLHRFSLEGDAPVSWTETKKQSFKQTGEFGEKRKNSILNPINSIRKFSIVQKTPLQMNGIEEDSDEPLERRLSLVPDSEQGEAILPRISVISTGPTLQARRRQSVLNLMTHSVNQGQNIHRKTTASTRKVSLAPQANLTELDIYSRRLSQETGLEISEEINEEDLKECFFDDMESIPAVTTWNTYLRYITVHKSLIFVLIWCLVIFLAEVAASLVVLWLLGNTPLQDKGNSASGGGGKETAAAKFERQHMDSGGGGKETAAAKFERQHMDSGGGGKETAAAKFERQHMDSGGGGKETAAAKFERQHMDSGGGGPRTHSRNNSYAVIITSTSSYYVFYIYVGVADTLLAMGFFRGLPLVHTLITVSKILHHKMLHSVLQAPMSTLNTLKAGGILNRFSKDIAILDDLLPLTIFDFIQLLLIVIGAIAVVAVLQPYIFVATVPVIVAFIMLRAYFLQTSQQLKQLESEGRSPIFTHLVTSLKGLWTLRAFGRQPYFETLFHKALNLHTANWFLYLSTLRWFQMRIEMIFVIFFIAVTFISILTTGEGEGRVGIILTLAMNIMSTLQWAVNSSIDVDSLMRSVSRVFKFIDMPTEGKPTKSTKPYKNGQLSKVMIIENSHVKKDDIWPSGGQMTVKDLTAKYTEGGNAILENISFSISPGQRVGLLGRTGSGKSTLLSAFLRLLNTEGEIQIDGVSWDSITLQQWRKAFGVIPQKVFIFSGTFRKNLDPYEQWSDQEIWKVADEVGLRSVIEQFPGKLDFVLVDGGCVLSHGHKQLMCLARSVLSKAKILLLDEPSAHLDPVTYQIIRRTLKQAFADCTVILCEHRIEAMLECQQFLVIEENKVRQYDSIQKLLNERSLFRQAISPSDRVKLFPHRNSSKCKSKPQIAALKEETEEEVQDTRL

For `O=C(/C=C/c1ccc(O)cc1)c1ccc(O)cc1O` [Compound 6, 4,2′,4′-trihydroxychalcone], at 4S-ΔF508 CFTR [1] (FACS, S-tag epitopes at the cell surface), the “activity in the rescreening assays” value is recorded as “active”. Besides, the “surface expression of CFTR (FACS)” value was “significant, dose dependent increase” at 4S-ΔF508 CFTR [1]; “significant and dose-dependent upregulation” on 4S-ΔF508 CFTR [1] (listed as isoliquiritigenin). Besides, the “expression of the protein assessed by western blotting” value at 4S-ΔF508 CFTR [2] is recorded as “increased expression”. In addition, the “activity in the assays of the invention” value at 4S-ΔF508 CFTR [3] is reported as “active”. Also, the “expression by immunofluorescence labeling using polyclonal S-tag antibody” value on 4S-ΔF508 CFTR [4] is reported as “increased expression”.
